Test results reported in ChEMBL document CHEMBL1146719, “Lysyl 4-aminobenzoic acid derivatives as potent small molecule mimetics of plasminogen kringle 5” (Bioorg Med Chem Lett, 2004).
Peptide text beside a SMILES is read from it.

Species on record: Homo sapiens
Assay: Inhibition of VEGF-stimulated migration of human microvascular endothelial cells
Format: functional, cell-based
Conditions: Endothelial cell

Which IC50 does the source give for CC(=O)N[C@@H](CCCCN)C(=O)N[C@@H](CC(C)C)C(=O)N[C@@H](Cc1ccc(O)cc1)C(=O)N[C@@H](CC(=O)O)C(=O)O (Ac-KLYD-OH) here?
Its IC50 is 1.2 nM.
